Values joined by “and” are separate entries in the source; they are usually repeats but may differ in a detail not shown here. Equal values may be shown once. Read-outs that look alike come from different tables or passages of the source.
Assays:
[1] = system: porcine liver samples; conditions: for Tissue destruction, visual observation: injected alone into porcine liver
[2] = system: liver parenchyma; design: species or system porcine; conditions: for Final thermocouple pH after five minutes: after NaOH pre-injection
[3] = 100 microliters alone, 0:00 min
[4] = 100 microliters alone, 0:15 min
[5] = 100 microliters alone, 0:30 min
[6] = 100 microliters alone, 1:00 min
[7] = 100 microliters alone, 1:15 min

SMILES: CC(=O)OC(C)=O [Acetic Anhydride]
- Recorded temperature changes [1]: 0.0-2.94 degrees C.
- Temperature change from baseline [1]: ≥ 1.0 degree C.
- pH [1, 3]: 6.33 and 7.52 and 7.1 and 6.14 and 6.23
- pH [1, 4]: 5.2 and 3.75 and 3.34 and 5.7 and 6.03
- pH [1, 5]: 5.06 and 3.54 and 3.2 and 5.63 and 6.01
- pH ([1]; 100 microliters alone, 0:45 min): 4.9 and 3.43 and 3.11 and 5.54 and 5.92
- pH [1, 6]: 4.81 and 3.36 and 3.05 and 5.42 and 5.91
- pH [1, 7]: 4.75 and 3.27 and 2.98 and 5.25 and 5.87
- pH ([1]; 100 microliters alone, 2:00 min): 4.47 and 3.09 and 2.77 and 4.3 and 5.5
- pH ([1]; 100 microliters alone, 2:15 min): 4.4 and 3.03 and 2.75 and 4.23 and 5.3
- pH ([1]; 100 microliters alone, 2:30 min): 4.35 and 2.96 and 2.71 and 4.21 and 4.79
- pH ([1]; 100 microliters alone, 2:45 min): 4.3 and 2.92 and 2.68 and 4.16 and 4.65
- pH ([1]; 100 microliters alone, 3:00 min): 4.25 and 2.9 and 2.65 and 4.12 and 4.57
- pH ([1]; 100 microliters alone, 3:15 min): 4.22 and 2.88 and 2.61 and 4.01 and 4.48
- pH ([1]; 100 microliters alone, 3:30 min): 4.2 and 2.84 and 2.57 and 4.01 and 4.46
- pH ([1]; 100 microliters alone, 3:45 min): 4.16 and 2.81 and 2.54 and 3.97 and 4.4
- pH ([1]; 100 microliters alone, 4:00 min): 4.14 and 2.78 and 2.5 and 3.93 and 4.38
- pH ([1]; 100 microliters alone, 4:15 min): 4.1 and 2.75 and 2.49 and 3.86 and 4.35
- pH ([1]; 100 microliters alone, 4:30 min): 4.09 and 2.74 and 2.46 and 3.84 and 4.32
- pH ([1]; 100 microliters alone, 4:45 min): 4.06 and 2.72 and 2.42 and 3.8 and 4.3
- pH ([1]; 100 microliters alone, 5:00 min): 4.05 and 2.7 and 2.41 and 3.74 and 4.29
- pH ([1]; 200 microliters alone, 1:00 min): 4.91 and 3.36 and 3.21 and 5.41 and 4.80
- Changes, pH (lower line) ([1]; 200 microliters alone, lower line of Changes (fits 0:00 vs 5:00)): 1.85 and 2.70 and 3.42 and 2.10 and 2.42
- Injections producing greater than one degree Celsius temperature change ([1]; 300 microliters alone): three out of five injections
- Tissue destruction, visual observation [1]: larger volumes of Acetic Anhydride correlated with greater areas of tissue destruction
- Recorded temperature change [2]: 1.4-9.4 degrees C.
- Final thermocouple pH after five minutes [2]: overwhelmingly basic

SMILES: CC(=O)Cl [Acetyl Chloride]
- Temp ([1]; 100 microliters alone, different temp probe, 0:00 min): 16.4 C. and 17.1 C. and 17.4 C. and 16.6 C. and 17 C.
- Temp ([1]; 100 microliters alone, different temp probe, 0:30 min): 22.5 C. and 32 C. and 39 C. and 42.2 C. and 32.3 C.
- Temp ([1]; 100 microliters alone, different temp probe, 0:45 min): 21.5 C. and 27.5 C. and 33.5 C. and 33.9 C. and 27.3 C.
- Temp ([1]; 100 microliters alone, different temp probe, 1:00 min): 21 C. and 25 C. and 30.6 C. and 30.7 C. and 25.7 C.
- Temp ([1]; 100 microliters alone, different temp probe, 1:15 min): 20.2 C. and 24 C. and 28.4 C. and 27.8 C. and 23.9 C.
- Temp ([1]; 100 microliters alone, different temp probe, 1:30 min): 19.6 C. and 23.5 C. and 27 C. and 26.2 C. and 23.1 C.
- Temp ([1]; 100 microliters alone, different temp probe, 1:45 min): 19 C. and 22.7 C. and 25.6 C. and 25 C. and 22.3 C.
- Temp ([1]; 100 microliters alone, different temp probe, 2:00 min): 18.4 C. and 22.1 C. and 24.7 C. and 24.2 C. and 21.6 C.
- Temp ([1]; 100 microliters alone, different temp probe, 2:15 min): 18.3 C. and 21.4 C. and 23.9 C. and 23.2 C. and 21.1 C.
- Temp ([1]; 100 microliters alone, different temp probe, 2:30 min): 18.1 C. and 21.1 C. and 23.3 C. and 22.6 C. and 20.6 C.
- Temp ([1]; 100 microliters alone, different temp probe, 2:45 min): 18 C. and 20.6 C. and 22.6 C. and 22 C. and 20.2 C.
- Temp ([1]; 100 microliters alone, different temp probe, 3:00 min): 17.9 C. and 20.3 C. and 22.1 C. and 21.5 C. and 19.9 C.
- Temp ([1]; 100 microliters alone, different temp probe, 3:15 min): 17.8 C. and 20.1 C. and 21.7 C. and 21.1 C. and 19.6 C.
- Temp ([1]; 100 microliters alone, different temp probe, 3:45 min): 17.6 C. and 19.5 C. and 21 C. and 20.4 C. and 19.1 C.
- Temp ([1]; 100 microliters alone, different temp probe, 4:00 min): 17.5 C. and 19.4 C. and 20.7 C. and 20.1 C. and 18.9 C.
- Temp ([1]; 100 microliters alone, different temp probe, 4:15 min): 17.5 C. and 19.2 C. and 20.4 C. and 19.9 C. and 18.9 C.
- Temp ([1]; 100 microliters alone, different temp probe, 4:30 min): 17.4 C. and 19 C. and 20.2 C. and 19.6 C. and 18.6 C.
- Temp ([1]; 100 microliters alone, different temp probe, 4:45 min): 17.3 C. and 18.8 C. and 20 C. and 19.4 C. and 18.4 C.
- Temp ([1]; 100 microliters alone, different temp probe, 5:00 min): 17.3 C. and 18.6 C. and 19.8 C. and 19.2 C. and 18.3 C.
- pH [1, 3]: 6.14 and 6.55 and 6.5 and 5.7
- pH [1, 4]: 3.1 and 4.67 and 4.62 and 4.82
- pH [1, 5]: 2.5 and 3.59 and 3.32 and 4.57
- Temp [1, 6]: 27.4 C. and 24.5 C. and 23.4 C. and 22.8 C.
- Temp [1, 7]: 26.2 C.
- Tissue destruction, visual observation [1]: more violent and rapid tissue destruction than Acetic Anhydride
- Temperature changes ([2]; 100, 200, 300 microliters after 100 or 200 microliters of 1M-15M NaOH, 21 injections): 7.9-32 degrees Celsius
- Final thermocouple pH after five minutes [2]: more acidic pH
- Temperature changes in the first thirty seconds after injection ([2]; eleven of the twenty-one runs, with NaOH): 20-30 degrees Celsius
